Measured values from patent US5041567A, “Antibacterial monic acid derivatives” (Beecham Group plc, priority 1982, dated 1991).
Values after ≈ are worked out from the molar mass of the structure shown. Where two headings read alike, the source gives them in different places.

Tests used:
Staph. aureus W2827 = experiment: MIC against human bacteria in vitro; format: cell-based; details: Staphylococcus aureus
[1] = system: M. suipneumoniae ATCC 25095; experiment: MIC against mycoplasma in vitro; format: cell-based; details: Mesomycoplasma hyopneumoniae, ATCC25095, 144 h
Strep. dysgalactiae SPD1 = experiment: MIC against veterinary bacteria in vitro; details: Streptococcus dysgalactiae, SPD1, 18 h
Protocol: (§1) The activity of the compounds of the Examples against various veterinarily important bacteria, was assayed in vitro using two-fold serial dilutions in Diagnostic Sensitivity Test Agar inoculated with 10^4 organisms.

M. hyorhinis ATCC 23234 = experiment: MIC against mycoplasma in vitro; format: cell-based; details: Mesomycoplasma hyorhinis, ATCC23234, 144 h; M. hyorhinis ATCC 23234; 6 days, 37° C.; read-out: MIC
Bord. bronchiseptica B09 = experiment: MIC against veterinary bacteria in vitro; details: Bordetella bronchiseptica, B09, 18 h
Protocol: as §1

Bacillus subtilis 6633 = experiment: MIC against human bacteria in vitro; format: cell-based
[2] = system: Strep. suis (group D) SPS11; experiment: MIC against veterinary bacteria in vitro; details: Streptococcus suis, 18 h
Protocol: as §1

E. coli E1 = experiment: MIC against veterinary bacteria in vitro; details: Escherichia coli, E1, 18 h
Protocol: as §1

Past. multocida PA1 = experiment: MIC against veterinary bacteria in vitro; details: Pasteurella multocida, PA1, 18 h
Protocol: as §1

M. suipneumoniae MS 16 = experiment: MIC against mycoplasma in vitro; format: cell-based; details: Mesomycoplasma hyopneumoniae, MS16, 144 h
Sarcina lutea 8340 = experiment: MIC against human bacteria in vitro; format: cell-based
Past. multocida PA2 = experiment: MIC against veterinary bacteria in vitro; details: Pasteurella multocida, PA2, 18 h
Protocol: as §1

Strep. spp. 64/848-C = experiment: MIC against human bacteria in vitro; format: cell-based
[3] = system: Staph. aureus B4 (pen. resistant); experiment: MIC against veterinary bacteria in vitro; details: Staphylococcus aureus, 18 h
Protocol: as §1

Strep. agalactiae 2788-B = experiment: MIC against human bacteria in vitro; format: cell-based; details: Streptococcus agalactiae
Strep. pneumoniae CN33 = experiment: MIC against human bacteria in vitro; format: cell-based; details: Streptococcus pneumoniae
Strep. faecalis I = experiment: MIC against human bacteria in vitro; format: cell-based; details: Enterococcus faecalis
[4] = system: M. suipneumoniae PW/C/210; experiment: MIC against mycoplasma in vitro; format: cell-based; details: Mesomycoplasma hyopneumoniae, 144 h
[5] = system: Corynebacterium xerosis 9755; experiment: MIC against human bacteria in vitro; format: cell-based
M. suipneumoniae TAM 6N = experiment: MIC against mycoplasma in vitro; format: cell-based; details: Mesomycoplasma hyopneumoniae, TAM6N, 144 h
P. mirabilis 889 = experiment: MIC against human bacteria in vitro; format: cell-based; details: Proteus mirabilis, 889, 18 h
M. suipneumoniae LABER = experiment: MIC against mycoplasma in vitro; format: cell-based; details: Mesomycoplasma hyopneumoniae, 144 h
S. dublin S7 = experiment: MIC against veterinary bacteria in vitro; details: Salmonella enterica, S7, 18 h
Protocol: as §1

E. coli NCTC 10418 = experiment: MIC against human bacteria in vitro; format: cell-based; details: Escherichia coli
K. aerogenes A = experiment: MIC against human bacteria in vitro; format: cell-based; details: Klebsiella aerogenes
Strep. agalactiae SPA1 = experiment: MIC against veterinary bacteria in vitro; details: Streptococcus agalactiae, SPA1, 18 h
Protocol: as §1

M. hyorhinis ATCC 25021 = experiment: MIC against mycoplasma in vitro; format: cell-based; details: Mesomycoplasma hyorhinis, ATCC25021, 144 h; M. hyorhinis ATCC 25021; 6 days, 37° C.; read-out: MIC
Staph. aureus Russell = experiment: MIC against human bacteria in vitro; format: cell-based; details: Staphylococcus aureus
[6] = system: Pasteurella multocida 1633; experiment: MIC against human bacteria in vitro; format: cell-based
M. suipneumoniae HK(2) = experiment: MIC against mycoplasma in vitro; format: cell-based; details: Mesomycoplasma hyopneumoniae, 144 h
E. coli ESS = experiment: MIC against human bacteria in vitro; format: cell-based; details: Escherichia coli
Staph. aureus Oxford = experiment: MIC against human bacteria in vitro; format: cell-based; details: Staphylococcus aureus
Bord. bronchiseptica B08 = experiment: MIC against veterinary bacteria in vitro; details: Bordetella bronchiseptica, B08, 18 h
Protocol: as §1

M. suipneumoniae UCD 1 = experiment: MIC against mycoplasma in vitro; format: cell-based; details: Mesomycoplasma hyopneumoniae, UCD1, 144 h
M. dispar NCTC 10125 = experiment: MIC against mycoplasma in vitro; format: cell-based; details: 144 h
[7] = M. suipneumoniae ATCC 25095, 6 days, 37° C., read-out: MIC
[8] = Bacillus subtilis 6633, 5% chocolated horse blood agar, 18 hours, read-out: MIC
[9] = M. suipneumoniae MS 16, 6 days, 37° C., read-out: MIC
[10] = M. suipneumoniae PW/C/210, 6 days, 37° C., read-out: MIC
[11] = Corynebacterium xerosis, 9755, 18 h
[12] = M. suipneumoniae TAM 6N, 6 days, 37° C., read-out: MIC
[13] = M. suipneumoniae LABER, 6 days, 37° C., read-out: MIC
[14] = Pasteurella multocida, 1633, 18 h
[15] = M. suipneumoniae HK(2), 6 days, 37° C., read-out: MIC
[16] = E. coli ESS, 5% chocolated horse blood agar, 18 hours, read-out: MIC
[17] = Staph. aureus Oxford, 5% chocolated horse blood agar, 18 hours, read-out: MIC
[18] = M. suipneumoniae UCD 1, 6 days, 37° C., read-out: MIC
[19] = M. dispar NCTC 10125, 6 days, 37° C., read-out: MIC
[20] = Strep. agalactiae 2788-B, 5% chocolated horse blood agar, 18 hours, read-out: MIC
[21] = Strep. pneumoniae CN33, 5% chocolated horse blood agar, 18 hours, read-out: MIC

| Structure (SMILES) | MIC (Staph. aureus W2827; W2827, 18 h) | MIC [1, 7] | MIC (Strep. dysgalactiae SPD1) | MIC (M. hyorhinis ATCC 23234) | MIC (Bord. bronchiseptica B09) | MIC (Bacillus subtilis 6633; [8]) | MIC [2] | MIC (E. coli E1) | MIC (Past. multocida PA1) | MIC (M. suipneumoniae MS 16; [9]) | MIC (Sarcina lutea 8340; Micrococcus luteus, 8340, 18 h) | MIC (Past. multocida PA2) | MIC (Strep. spp. 64/848-C; 18 h) | MIC [3] | MIC (Strep. faecalis I; 18 h) | MIC (P. mirabilis 889) | MIC (S. dublin S7) | MIC (Strep. agalactiae SPA1) | MIC (M. hyorhinis ATCC 25021) | MIC (Bord. bronchiseptica B08) | further results |
| --- | --- | --- | --- | --- | --- | --- | --- | --- | --- | --- | --- | --- | --- | --- | --- | --- | --- | --- | --- | --- | --- |
| C/C(=C/c1ncc(-c2ccccc2)o1)C[C@@H]1OC[C@H](C[C@@H]2O[C@H]2[C@@H](C)[C@H](C)O)[C@@H](O)[C@H]1O [Example 2, 2-{3-[5-(2,3-epoxy-5-hydroxy-4-methylhexyl)-3,4-dihydroxytetrahydropyran-2-yl]-2-methylprop-1(Z)-enyl}-5-phenyloxazole] | > 50 µg/mL | 10 µg/mL (≈ 22.5 µM) | 10 µg/mL (≈ 22.5 µM) | 10 µg/mL (≈ 22.5 µM) | > 80 µg/mL | 25 µg/mL (≈ 56.4 µM) | > 80 µg/mL | > 80 µg/mL | > 80 µg/mL | 5 µg/mL (≈ 11.3 µM) | > 50 µg/mL | 20 µg/mL (≈ 45.1 µM) | > 50 µg/mL | 20 µg/mL (≈ 45.1 µM) | > 50 µg/mL | > 50 µg/mL | > 80 µg/mL | 20 µg/mL (≈ 45.1 µM) | 5 µg/mL (≈ 11.3 µM) | > 80 µg/mL | MIC (Strep. agalactiae 2788-B; 2788B, 18 h): > 50 µg/mL; MIC (Strep. pneumoniae CN33; CN33, 18 h): > 50 µg/mL; MIC [4, 10]: 5 µg/mL (≈ 11.3 µM); MIC [5, 11]: > 50 µg/mL; MIC (M. suipneumoniae TAM 6N; [12]): > 10 µg/mL; MIC (M. suipneumoniae LABER; [13]): 10 µg/mL (≈ 22.5 µM); MIC (E. coli NCTC 10418; NCTC10418, 18 h): > 50 µg/mL; MIC (K. aerogenes A; 18 h): > 50 µg/mL; MIC (Staph. aureus Russell; 18 h): > 50 µg/mL; MIC [6, 14]: > 50 µg/mL; MIC (M. suipneumoniae HK(2); [15]): 10 µg/mL (≈ 22.5 µM); MIC (E. coli ESS; [16]): 25 µg/mL (≈ 56.4 µM); MIC (Staph. aureus Oxford; [17]): 25 µg/mL (≈ 56.4 µM); MIC (M. suipneumoniae UCD 1; [18]): 10 µg/mL (≈ 22.5 µM); MIC (M. dispar NCTC 10125; [19]): 2.5 µg/mL (≈ 5.64 µM) |
| C/C(=C\c1ncc(-c2ccc([N+](=O)[O-])cc2)o1)C[C@@H]1OC[C@H](C[C@@H]2O[C@H]2[C@@H](C)[C@H](C)O)[C@@H](O)[C@H]1O [Example 3, 5-p-nitro-phenyl-2-(1-normon-2-yl)-oxazole A] | – | 0.1 µg/mL (≈ 0.205 µM) | 0.312 µg/mL (≈ 0.639 µM) | 0.1 µg/mL (≈ 0.205 µM) | 5 µg/mL (≈ 10.2 µM) | 0.5 µg/mL (≈ 1.02 µM) | 2.5 µg/mL (≈ 5.12 µM) | > 80 µg/mL | 5 µg/mL (≈ 10.2 µM) | 0.05 µg/mL (≈ 0.102 µM) | – | 0.625 µg/mL (≈ 1.28 µM) | – | 0.312 µg/mL (≈ 0.639 µM) | – | 50 µg/mL (≈ 102 µM) | > 80 µg/mL | 1.25 µg/mL (≈ 2.56 µM) | 0.05 µg/mL (≈ 0.102 µM) | 40 µg/mL (≈ 81.9 µM) | MIC (Staph. aureus W2827; Staph. aureus W2827, 5% chocolated horse blood agar, 18 hours, read-out: MIC): 1 µg/mL (≈ 2.05 µM); MIC (Sarcina lutea 8340; Micrococcus luteus, Sarcina lutea 8340, 5% chocolated horse blood agar, 18 hours, read-out: MIC): > 100 µg/mL; MIC (Strep. spp. 64/848-C; Strep. spp. 64/848-C, 5% chocolated horse blood agar, 18 hours, read-out: MIC): 0.5 µg/mL (≈ 1.02 µM); MIC (Strep. agalactiae 2788-B; [20]): 0.5 µg/mL (≈ 1.02 µM); MIC (Strep. pneumoniae CN33; [21]): 0.5 µg/mL (≈ 1.02 µM); MIC (Strep. faecalis I; Strep. faecalis I, 5% chocolated horse blood agar, 18 hours, read-out: MIC): 50 µg/mL (≈ 102 µM); MIC [4, 10]: 0.1 µg/mL (≈ 0.205 µM); MIC ([5]; Corynebacterium xerosis 9755, 5% chocolated horse blood agar, 18 hours, read-out: MIC): > 100 µg/mL; MIC (M. suipneumoniae TAM 6N; [12]): 0.25 µg/mL (≈ 0.512 µM); MIC (M. suipneumoniae LABER; [13]): 0.1 µg/mL (≈ 0.205 µM); MIC (E. coli NCTC 10418; NCTC10418, E. coli NCTC 10418, agar with 5% chocolated horse blood, 18 hours, 37° C., read-out: MIC): > 100 µg/mL; MIC (K. aerogenes A; K. aerogenes A, 5% chocolated horse blood agar, 18 hours, read-out: MIC): 100 µg/mL (≈ 205 µM); MIC (Staph. aureus Russell; Staph. aureus Russell, 5% chocolated horse blood agar, 18 hours, read-out: MIC): 5 µg/mL (≈ 10.2 µM); MIC ([6]; Pasteurella multocida 1633, 5% chocolated horse blood agar, 18 hours, read-out: MIC): 0.5 µg/mL (≈ 1.02 µM); MIC (M. suipneumoniae HK(2); [15]): 0.25 µg/mL (≈ 0.512 µM); MIC (E. coli ESS; [16]): 0.5 µg/mL (≈ 1.02 µM); MIC (Staph. aureus Oxford; [17]): 0.2 µg/mL (≈ 0.409 µM); MIC (M. suipneumoniae UCD 1; [18]): 0.25 µg/mL (≈ 0.512 µM); MIC (M. dispar NCTC 10125; [19]): 0.05 µg/mL (≈ 0.102 µM) |
| CSc1ccc(-c2cnc(/C=C(\C)C[C@@H]3OC[C@H](C[C@@H]4O[C@H]4[C@@H](C)[C@H](C)O)[C@@H](O)[C@H]3O)o2)cc1 [Example 9, 5-p-methylthiophenyl-2-(1-normon-2-yl)oxazole A] | 5 µg/mL (≈ 10.2 µM) | – | 0.625 µg/mL (≈ 1.28 µM) | 0.5 µg/mL (≈ 1.02 µM) | 40 µg/mL (≈ 81.7 µM) | – | 10 µg/mL (≈ 20.4 µM) | > 80 µg/mL | 20 µg/mL (≈ 40.8 µM) | – | > 100 µg/mL | 5 µg/mL (≈ 10.2 µM) | 5 µg/mL (≈ 10.2 µM) | 1.25 µg/mL (≈ 2.55 µM) | > 100 µg/mL | > 100 µg/mL | > 80 µg/mL | 10 µg/mL (≈ 20.4 µM) | 0.5 µg/mL (≈ 1.02 µM) | 40 µg/mL (≈ 81.7 µM) | MIC [1]: 0.5 µg/mL (≈ 1.02 µM); MIC (Bacillus subtilis 6633; Bacillus subtilis, 6633, 18 h): 1 µg/mL (≈ 2.04 µM); MIC (M. suipneumoniae MS 16): 0.5 µg/mL (≈ 1.02 µM); MIC (Strep. agalactiae 2788-B; [20]): 10 µg/mL (≈ 20.4 µM); MIC (Strep. pneumoniae CN33; [21]): 10 µg/mL (≈ 20.4 µM); MIC [4]: 0.5 µg/mL (≈ 1.02 µM); MIC [5, 11]: > 100 µg/mL; MIC (M. suipneumoniae TAM 6N): 0.5 µg/mL (≈ 1.02 µM); MIC (M. suipneumoniae LABER): 0.5 µg/mL (≈ 1.02 µM); MIC (E. coli NCTC 10418; NCTC10418, 18 h): > 100 µg/mL; MIC (K. aerogenes A; 18 h): > 100 µg/mL; MIC (Staph. aureus Russell; 18 h): 5 µg/mL (≈ 10.2 µM); MIC [6, 14]: 5 µg/mL (≈ 10.2 µM); MIC (M. suipneumoniae HK(2)): 0.5 µg/mL (≈ 1.02 µM); MIC (E. coli ESS; 18 h): 5 µg/mL (≈ 10.2 µM); MIC (Staph. aureus Oxford; 18 h): 2.5 µg/mL (≈ 5.11 µM); MIC (M. suipneumoniae UCD 1): 0.5 µg/mL (≈ 1.02 µM); MIC (M. dispar NCTC 10125): 0.1 µg/mL (≈ 0.204 µM) |
